Measured values as given in patent US8653096B2, “Chemokine receptor antagonists and methods of use thereof” (Millennium Pharmaceuticals, Inc., priority 2001, dated 2014).

Target: T1, RANTES/MIP-1α chemokine receptor (CCR1) in THP-1 cell membranes (Homo sapiens, UniProt P32246)
T1 construct: Membranes were prepared from THP-1 cells (ATCC #TIB202); host or cells: THP-1 cells (membrane preparation)
T1 sequence (P32246 1-355): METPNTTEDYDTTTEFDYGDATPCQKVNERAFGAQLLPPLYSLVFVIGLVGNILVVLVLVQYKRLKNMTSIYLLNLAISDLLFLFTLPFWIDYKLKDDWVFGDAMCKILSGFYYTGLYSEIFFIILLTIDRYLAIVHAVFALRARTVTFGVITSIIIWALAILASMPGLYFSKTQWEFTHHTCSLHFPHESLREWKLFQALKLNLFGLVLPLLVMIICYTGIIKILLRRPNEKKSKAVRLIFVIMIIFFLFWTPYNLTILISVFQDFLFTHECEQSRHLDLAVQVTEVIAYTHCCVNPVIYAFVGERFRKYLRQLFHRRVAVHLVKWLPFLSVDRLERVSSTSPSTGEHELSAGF
Assay: Receptor binding assay: 125I-RANTES or 125I-MIP-1α binding to THP-1 cell membranes
Conditions: inhibitor concentration required for 50% inhibition of specific binding; 125I-RANTES or 125I-MIP-1α as ligand, THP-1 cell membranes; read-out: IC50

IC50 [nM]	SMILES
< 1000	CC1CN(CCC=C2c3cc(C(C)(C)O)ccc3OCc3ncccc32)CCN1c1ccc(Cl)cc1 (stereo not shown) [Example 519, 2-(5-{3-[4-(4-Chloro-phenyl)-3-methyl-piperazin-1-yl]-propylidene}-5,11-dihydro-10-oxa-1-aza-dibenzo[a,d]cyclohepten-7-yl)-propan-2-ol]
< 1000	CCN(Cc1ccc(Cl)cc1)[C@@H]1CCN(CCC=C2c3cc(C(C)(C)O)ccc3OCc3ncccc32)C1 [Example 524, (R)-2-[5-(3-{3-[(4-Chloro-benzyl)-ethyl-amino]-pyrrolidin-1-yl}-propylidene)-5,11-dihydro-10-oxa-1-aza-dibenzo[a,d]cyclohepten-7-yl]-propan-2-ol]
< 20000	CCN(c1ccc(Cl)cc1)[C@@H]1CCN(CCC=C2c3cc(C(C)(C)O)ccc3OCc3ncccc32)C1 [Example 525, (R)-2-[5-(3-{3-[(4-Chloro-phenyl)-ethyl-amino]-pyrrolidin-1-yl}-propylidene)-5,11-dihydro-10-oxa-1-aza-dibenzo[a,d]cyclohepten-7-yl]-propan-2-ol]
< 1000	CCN(Cc1ccc(Cl)cc1)[C@@H]1CCN(CCC=C2c3cc(C(=O)O)ccc3OCc3ncccc32)C1 [Example 527, (R)-5-(3-{3-[(4-Chloro-benzyl)-ethyl-amino]-pyrrolidin-1-yl}-propylidene)-5,11-dihydro-10-oxa-1-aza-dibenzo[a,d]cycloheptene-7-carboxylic acid]
< 10000	CCN(CCc1ccc(Cl)cc1)[C@@H]1CCN(CCC=C2c3cc(C(C)(C)O)ccc3OCc3ncccc32)C1 [Example 528]
< 20000	CC(C)(O)c1ccc2c(c1)C(=CCCN1CC[C@H](OCc3ccc(Cl)cc3)C1)c1cccnc1CO2 [Example 529, (S)-2-(5-{3-[3-(4-Chloro-benzyloxy)-pyrrolidin-1-yl]-propylidene}-5,11-dihydro-10-oxa-1-aza-dibenzo[a,d]cyclohepten-7-yl)-propan-2-ol]
< 20000	CC(C)(O)c1ccc2c(c1)C(=CCCN1CCC(C(=O)NCc3ccc(Cl)cc3)C1)c1cccnc1CO2 (stereo not shown) [Example 530]
< 1000	CCN(C(=O)C1CCN(CCC=C2c3cc(C(C)(C)O)ccc3OCc3ncccc32)C1)c1ccc(Cl)cc1 (stereo not shown) [Example 531, 1-{3-[7-(1-Hydroxy-1-methyl-ethyl)-11H-10-oxa-1-aza-dibenzo[a,d]cyclohepten-5-ylidene]-propyl}-pyrrolidine-3-carboxylic acid (4-chloro-phenyl)-ethyl-amide]
< 2000	CC(C)(O)c1ccc2c(c1)C(=CCCN1CC[C@@H](N3Cc4ccc(Cl)cc4C3)C1)c1cccnc1CO2 [Example 532]
< 10000	CC(C)(O)c1ccc2c(c1)C(=CCCN1CC[C@@H](N(Cc3ccc(Cl)cc3)C(N)=O)C1)c1cccnc1CO2 [Example 533, (R)-1-(4-Chloro-benzyl)-1-(1-{3-[7-(1-hydroxy-1-methyl-ethyl)-11H-10-oxa-1-aza-dibenzo[a,d]cyclohepten-5-ylidene]-propyl}-pyrrolidin-3-yl)urea]
< 1000	CC(C)(O)c1ccc2c(c1)C(=CCCN1CC[C@@H](N3CC(=O)Nc4cc(Cl)ccc4C3)C1)c1cccnc1CO2 [Example 534, (R)-8-Chloro-4-(1-{3-[7-(-hydroxy-1-methyl-ethyl)-11H-10-oxa-1-aza-dibenzo[a,d]cyclohepten-5-ylidene]-propyl}-pyrrolidine-3-yl)-1,3,4,5-tetrahydro-benzo[e][1,4]diazepin-2-one]
< 10000	CCN1C(=O)CN([C@@H]2CCN(CCC=C3c4cc(C(C)(C)O)ccc4OCc4ncccc43)C2)Cc2ccc(Cl)cc21 [Example 535, (R)-8-Chloro-1-ethyl-4-(1-{3[7-(-hydroxy-1-methyl-ethyl)-11H-10-oxa-1-aza-dibenzo[a,d]cyclohepten-5-ylidene]-propyl}-pyrrolidine-3-yl)-1,3,4,5-tetrahydro-benzo[e][1,4]diazepin-2-one]
< 1000	COC(=O)CN(Cc1ccc(Cl)cc1)C1CCN(CCC=C2c3cc(C(C)(C)O)ccc3OCc3ncccc32)C1 (stereo not shown) [Example 536, [(4-Chloro-benzyl)-(1-{3-[7-(1-hydroxy-1-methyl-ethyl)-11H-10-oxa-1-aza-dibenzo[a,d]cyclohepten-5-ylidene]-propyl}-pyrrolidin-3-yl)-amino]-acetic acid methyl ester]
< 1000	CC(C)(O)c1ccc2c(c1)C(=CCCN1CCC(N(CC(=O)O)Cc3ccc(Cl)cc3)C1)c1cccnc1CO2 (stereo not shown) [Example 537, [(4-Chloro-benzyl)-(1-{3-[7-(1-hydroxy-1-methyl-ethyl)-11H-10-oxa-1-aza-dibenzo[a,d]cyclohepten-5-ylidene]-propyl}-pyrrolidin-3-yl)-amino]-acetic acid]
< 10000	CC(C)(O)c1ccc2c(c1)C(=CCCN1CCN(c3ccc(Cl)c(Cl)c3)CC1)c1cccnc1CO2 [Example 538, 2-(5-{3-[4-(3,4-Dichloro-phenyl)-piperazin-1-yl]-propylidene}-5,11-dihydro-10-oxa-1-aza-dibenzo[a,d]cyclohepten-7-yl)-propan-2-ol]
< 10000	Cc1cc(Cl)ccc1N1CCN(CCC=C2c3cc(C(C)(C)O)ccc3OCc3ncccc32)CC1 [Example 539, 2-(5-{3-[4-(4-Chloro-2-methyl-phenyl)-piperazin-1-yl]-propylidene}-5,11-dihydro-10-oxa-1-aza-dibenzo[a,d]cyclohepten-7-yl)-propan-2-ol]
< 10000	CC(C)(O)c1ccc2c(c1)C(=CCCN1CCN(c3ccc(Cl)cc3C#N)CC1)c1cccnc1CO2 [Example 540, 5-Chloro-2-(4-{3-[7-(1-hydroxy-1-methyl-ethyl)-11H-10-oxa-1-aza-dibenzo[a,d]cyclohepten-5-ylidene]-propyl}-piperazin-1-yl)-benzonitrile]
< 10000	COC(=O)c1cc(Cl)ccc1N1CCN(CCC=C2c3cc(C(C)(C)O)ccc3OCc3ncccc32)CC1 [Example 541, 5-Chloro-2-(4-{3-[7-(1-hydroxy-1-methyl-ethyl)-11H-10-oxa-1-aza-dibenzo[a,d]cyclohepten-5-ylidene]-propyl}-piperazin-1-yl)-benzoic acid methyl ester]
< 10000	CC(C)(O)c1ccc2c(c1)C(=CCCN1CCC(NC(=O)Cc3ccc(Cl)cc3)CC1)c1cccnc1CO2 [Example 542, 2-(4-Chloro-phenyl)-N-(1-{3-[7-(1-hydroxy-1-methyl-ethyl)-11H-10-oxa-1-azadibenzo[a,d]cyclohepten-5-ylidene]-propyl}-piperidin-4-yl)-acetamide]

SMILES	IC50 [nM]
COC(=O)COc1ccc2c(c1)C(=CCCN1CCC(O)(c3ccc(Cl)cc3)C(C)(C)C1)c1cccnc1CO2 (stereo not shown) [Example 514, (5-{3-[4-(4-Chloro-phenyl)-4-hydroxy-3,3-dimethyl-piperidin-1-yl]-propylidene}-5,11-dihydro-10-oxa-1-aza-dibenzo[a,d]cyclohepten-7-yloxy)-acetic acid methyl ester]	< 1000
CC1(C)CN(CCC=C2c3cc(OCC(=O)O)ccc3OCc3ncccc32)CCC1(O)c1ccc(Cl)cc1 (stereo not shown) [Example 515, (5-{3-[4-(4-Chloro-phenyl)-4-hydroxy-3,3-dimethyl-piperidin-1-yl]-propylidene}-5,11-dihydro-10-oxa-1-aza-dibenzo[a,d]cyclohepten-7-yloxy)-acetic acid]	< 1000
CC1(C)CN(CCC=C2c3cc(OCC(N)=O)ccc3OCc3ncccc32)CCC1(O)c1ccc(Cl)cc1 (stereo not shown) [Example 516, 2-(5-{3-[4-(4-Chloro-phenyl)-4-hydroxy-3,3-dimethyl-piperidin-1-yl]-propylidene}-5,11-dihydro-10-oxa-1-aza-dibenzo [a,d]cyclohepten-7-yloxy)-acetamide]	< 1000
CC(C)(O)COc1ccc2c(c1)C(=CCCN1CCC(O)(c3ccc(Cl)cc3)C(C)(C)C1)c1cccnc1CO2 (stereo not shown) [Example 517, 4-(4-Chloro-phenyl)-1-{3-[7-(2-hydroxy-2-methyl-propoxy)-11H-10-oxa-1-aza-dibenzo[a,d]cyclohepten-5-ylidene]-propyl}-3,3-dimethyl-piperidin-4-ol]	< 1000
CC1(C)CN(CCC=C2c3cc(CC(O)CO)ccc3OCc3ncccc32)CCC1(O)c1ccc(Cl)cc1 (stereo not shown) [Example 518, 3-(5-{3-[4-(4-Chloro-phenyl)-4-hydroxy-3,3-dimethyl-piperidin-1-yl]-propylidene}-5,11-dihydro-10-oxa-1-aza-dibenzo[a, d]cyclohepten-7-yl)propane-1,2-diol]	< 1000
CC(C)(O)c1ccc2c(c1)C(=CCCN1CCC3(CC1)OC(=O)Nc1ccc(Cl)cc13)c1cccnc1CO2 [Example 520]	< 1000
CC(C)(O)c1ccc2c(c1)C(=CCCN1CCC(C)(c3ccccc3Cl)CC1)c1cccnc1CO2 [Example 521, 2-(5-{3-[4-(2-Chloro-phenyl)-4-methyl-piperidin-1-yl]-propylidene}-5,11-dihydro-10-oxa-1-aza-dibenzo[a,d]cyclohepten-7-yl)-propan-2-ol]	< 1000
CC1CN(CCC=C2c3cc(OCC(C)(C)O)ccc3OCc3ncccc32)CCC1(O)c1ccc(Cl)cc1 (stereo not shown) [Example 522, 4-(4-Chloro-phenyl)-1-{3-[7-(2-hydroxy-2-methyl-propoxy)-11H-10-oxa-1-aza-dibenzo[a,d]cyclohepten-5-ylidene]-propyl}-3-methyl-piperidin-4-ol]	< 1000
CC(C)(O)c1ccc2c(c1)C(=CCCN1CCC(O)(c3ccc(Cl)cc3)C(C)(C)C1)c1ccc[n+]([O-])c1CO2 (stereo not shown) [Example 523, 4-(4-Chloro-phenyl)-1-{3-[7-(1-hydroxy-1-methyl-ethyl)-1-oxy-11H-10-oxa-1-aza-dibenzo[a,d]cyclohepten-5-ylidene]-propyl}-3,3-dimethyl-piperidin-4-ol]	< 1000
